Test results: patent publication US20170360747A1, “USE OF ZILEUTON FOR THE TREATMENT OF NASAL POLYPS IN CYSTIC FIBROSIS PATIENTS” (CORNERSTONE THERAPEUTICS INC., priority 2011, published 2017)

What was measured:
[1] = test system: nasal polyposis in patient with cystic fibrosis; assay: Case report Example 1: cystic fibrosis patient with bilateral nasal polyposis; format: in vivo, human
Procedure: A patient has a history of cystic fibrosis and chronic sinusitis. The patient complained of hyposmia and nasal congestion. […] Culture of the sinuses grew out Pseudomonas. Patient was prescribed ciprofloxacin per the sinus culture. […] Prior to prescribing oral zileuton, a liver function test was performed that was normal. Patient was given zileuton 1200 mg BID. Two months later patient came back with improved nasal congestion and smell. […] Since the patient's symptoms improved, the zileuton was eventually discontinued. After a few months the patient's sinus infection returned. Patient was placed on oral ciprofloxacin.

[2] = test system: coughing in patient with cystic fibrosis and chronic sinusitis; assay: Case report Example 2: cystic fibrosis patient with chronic sinusitis and coughing; format: in vivo, human
Procedure: Patient failed medical treatment, so they underwent endoscopic sinus surgery. Patient's sinus culture has grown MRSA and Pseudomonas. Patient initially did well after the surgery but was readmitted for pulmonary exacerbation. […] Patient was treated with ciprofloxacin for Pseudomonas. […] Nasal endoscopy was not performed in the child due to their young age. The patient was then treated with zileuton 600 mg BID after a normal liver function test. Patient's coughing improved with the zileuton treatment.

[3] = biological target: T1, 5-lipoxygenase (Homo sapiens, UniProt P09917); conditions: statement 'recently been found', no data given; cited from earlier work
T1 sequence (P09917 1-674): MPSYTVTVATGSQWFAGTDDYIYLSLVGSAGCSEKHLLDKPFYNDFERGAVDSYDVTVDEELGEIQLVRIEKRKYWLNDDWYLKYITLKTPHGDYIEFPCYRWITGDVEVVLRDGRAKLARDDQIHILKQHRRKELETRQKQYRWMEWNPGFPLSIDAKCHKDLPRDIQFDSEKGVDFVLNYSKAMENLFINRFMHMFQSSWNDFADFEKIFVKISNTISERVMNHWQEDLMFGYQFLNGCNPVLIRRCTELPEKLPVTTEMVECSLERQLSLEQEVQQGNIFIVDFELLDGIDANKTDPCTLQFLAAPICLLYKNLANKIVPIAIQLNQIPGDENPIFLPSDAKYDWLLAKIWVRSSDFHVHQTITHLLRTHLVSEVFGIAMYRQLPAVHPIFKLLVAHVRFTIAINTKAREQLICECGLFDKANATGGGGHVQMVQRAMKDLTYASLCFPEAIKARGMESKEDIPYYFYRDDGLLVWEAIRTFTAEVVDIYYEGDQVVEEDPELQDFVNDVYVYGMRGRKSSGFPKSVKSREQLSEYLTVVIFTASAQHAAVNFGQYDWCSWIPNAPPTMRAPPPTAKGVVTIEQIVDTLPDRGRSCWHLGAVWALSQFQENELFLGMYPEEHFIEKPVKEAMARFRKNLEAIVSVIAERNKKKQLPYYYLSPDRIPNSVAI

[4] = zileuton 1200 mg BID oral, two months later, one patient
[5] = treatments given before zileuton (ciprofloxacin for Pseudomonas; inhaled dornase alfa)

Molecule: CC(c1cc2ccccc2s1)N(O)C(N)=O (racemic) [zileuton, (±)-1-(1-Benzo[b]thien-2-ylethyl)-1-hydroxyurea]
- nasal congestion and smell [1, 4]: improved
- nasal endoscopy: polyps [1, 4]: decreased polyps
- nasal endoscopy: purulence ([1]; zileuton 1200 mg BID oral, two months later, prescribed ciprofloxacin not taken): no purulence
- adverse effect: coughing ([1]; zileuton 1200 mg BID, dose then decreased to 600 mg BID): increased coughing
- coughing ([2]; zileuton 600 mg BID, one patient): improved

Molecule: O=C(O)c1cn(C2CC2)c2cc(N3CCNCC3)c(F)cc2c1=O [ciprofloxacin]
- nasal symptoms after return of sinus infection ([1]; oral ciprofloxacin, after zileuton was discontinued): initial improvement but eventually had return of their nasal symptoms
- coughing [2, 5]: initially improved but gradually returned

Molecule: C[C@H](c1cc2ccccc2s1)N(O)C(N)=O [(R)-zileuton]
- efficacy in inhibiting 5-lipoxygenase activity, compared between enantiomers and racemate [3]: more efficacious than either of (S)-zileuton and racemic zileuton

B1: dornase alfa (protein, UniProt P24855 23-282, looked up)
Deoxyribonuclease-1: LKIAAFNIQTFGETKMSNATLVSYIVQILSRYDIALVQEVRDSHLTAVGKLLDNLNQDAPDTYHYVVSEPLGRNSYKERYLFVYRPDQVSAVDSYYYDDGCEPCGNDTFNREPAIVRFFSRFTEVREFAIVPLHAAPGDAVAEIDALYDVYLDVQEKWGLEDVMLMGDFNAGCSYVRPSQWSSIRLWTSPTFQWLIPDSADTTATPTHCAYDRIVVAGMLLRGAVVPDSALPFNFQAAYGLSDQLAQAISDHYPVEVMLK
notes: inhaled dornase alfa, part of aggressive medical treatment
- coughing [2, 5]: continued to have coughing
